Source: patent US12202818B2, “Compounds and methods for CD73 modulation and indications therefor” (Opna Bio SA, priority 2020, dated 2025)
pIC50: −log10 of the molar value.

Tests used:
[1] = target: T1, Human CD73 (amino acid residues 27-549) (Homo sapiens, UniProt P21589); assay: CD73 enzymatic assay (luciferase-based indirect assay, CellTiter-Glo); format: biochemical; conditions: 0.4 nM CD73, 150 μM AMP, 1 hour at room temperature
T1 construct: Human CD73 (amino acid residues 27-549); His tag (N); made in house; host or cells: E. coli
T1 sequence (P21589 27-549): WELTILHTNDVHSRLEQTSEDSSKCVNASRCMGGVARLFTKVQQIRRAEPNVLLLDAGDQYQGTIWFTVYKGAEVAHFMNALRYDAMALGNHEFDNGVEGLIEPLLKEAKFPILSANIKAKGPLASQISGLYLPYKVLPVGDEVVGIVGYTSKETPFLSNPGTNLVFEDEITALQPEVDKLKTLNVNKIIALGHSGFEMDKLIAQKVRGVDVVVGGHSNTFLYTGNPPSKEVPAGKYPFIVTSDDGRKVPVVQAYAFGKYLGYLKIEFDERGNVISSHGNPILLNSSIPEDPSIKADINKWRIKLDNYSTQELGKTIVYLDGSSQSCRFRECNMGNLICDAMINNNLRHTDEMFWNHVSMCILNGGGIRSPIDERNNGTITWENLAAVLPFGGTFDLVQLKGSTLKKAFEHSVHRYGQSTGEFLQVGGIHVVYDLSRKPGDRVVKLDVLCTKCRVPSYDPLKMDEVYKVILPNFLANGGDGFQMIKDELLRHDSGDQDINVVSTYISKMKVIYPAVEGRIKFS
How it was run: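 N-His human CD73 (27-549) expressed in E. coli, 0.4 nM, incubated with 150 μM AMP and compound in 50 mM HEPES pH 7.4, 0.01% Tween-20, 1 h at RT. Remaining AMP read via CellTiter-Glo luminescence with 1 μM ATP after 30 min; IC50 from nonlinear regression of % inhibition.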

human CD73 = target: T2, human CD73 (Homo sapiens, UniProt P21589); assay: Inhibitor activity against CD73 in cell based assay (CD73 expressing CHO-K1 cells); conditions: CHO-K1 cells expressing human CD73, 150 μM AMP, 4 hours of incubation; read-out: CHO-K1 CELL_VARIANT: CD73 IC50
T2 construct: expressed in transfected cells
T2 sequence (P21589 27-549): T1 sequence (P21589 27-549)
How it was run: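 Stable human CD73 CHO-K1 cells, 1×10^4/well, exposed to an 8-point 1:3 compound series (top 10 μM, 0.2% DMSO) plus 150 μM AMP for 4 h. Remaining AMP in the supernatant was read by CellTiter-Glo 2.0 luminescence with 1 μM ATP after 30 min at room temperature. IC50 came from nonlinear regression of % inhibition against cell and media-only controls.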

SMILES	pIC50 [1]	pIC50 (human CD73)
Cc1c(C)n(-c2cc(F)nc(O[C@@H]3CCN(c4cn[nH]c(=O)c4Cl)C3)c2)c2ccccc12 [P-0153, (R)-4-chloro-5-(3-((4-(2,3-dimethyl-1H-indol-1-yl)-6-fluoropyridin-2-yl)oxy)pyrrolidin-1-yl)pyridazin-3(2H)-one]	5.00 to 9.00	5.00 to 9.00
Cc1nn(CC2(F)CNC2)c(C)c1-c1cc(F)nc(O[C@@H]2CCN(c3cn[nH]c(=O)c3Cl)C2)c1 [P-0154, (R)-4-chloro-5-(3-((6-fluoro-4-(1-((3-fluoroazetidin-3-yl)methyl)-3,5-dimethyl-1H-pyrazol-4-yl)pyridin-2-yl)oxy)pyrrolidin-1-yl)pyridazin-3(2H)-one]	5.00 to 9.00	5.00 to 9.00
Cn1ncc(Cl)c1-c1ccnc(O[C@@H]2CCN(c3cn[nH]c(=O)c3Cl)C2)c1 [P-0155, (R)-4-chloro-5-(3-((4-(4-chloro-1-methyl-1H-pyrazol-5-yl)pyridin-2-yl)oxy)pyrrolidin-1-yl)pyridazin-3(2H)-one]	5.00 to 9.00	5.00 to 9.00
Cc1nn(C)c(C)c1-c1cnnc(O[C@@H]2CCN(c3cn[nH]c(=O)c3Cl)C2)c1 [P-0156, (R)-4-chloro-5-(3-((5-(1,3,5-trimethyl-1H-pyrazol-4-yl)pyridazin-3-yl)oxy)pyrrolidin-1-yl)pyridazin-3(2H)-one]	5.00 to 9.00	5.00 to 9.00
Cc1nn(C)c(C)c1-c1cc(O[C@@H]2CCN(c3cn[nH]c(=O)c3Cl)C2)cnn1 [P-0157, (R)-4-chloro-5-(3-((6-(1,3,5-trimethyl-1H-pyrazol-4-yl)pyridazin-4-yl)oxy)pyrrolidm-1-yl)pyridazin-3(2H)-one]	5.00 to 9.00	5.00 to 9.00
Cc1noc(C)c1-c1cnnc(O[C@@H]2CCN(c3cn[nH]c(=O)c3Cl)C2)c1 [P-0158, (R)-4-chloro-5-(3-((5-(3,5-dimethylisoxazol-4-yl)pyridazin-3-yl)oxy)pyrrolidin-1-yl)pyridazin-3(2H)-one]	5.00 to 9.00	5.00 to 9.00
Cc1nn(CCN2CCCC2)c(C)c1-c1cc(F)nc(O[C@@H]2CCN(c3cn[nH]c(=O)c3Cl)C2)c1 [P-0159, (R)-4-chloro-5-(3-((4-(3,5-dimethyl-1-(2-(pyrrolidin-1-yl)ethyl)-1H-pyrazol-4-yl)-6-fluoropyridin-2-yl)oxy)pyrrolidin-1-yl)pyridazin-3(2H)-one]	5.00 to 9.00	5.00 to 9.00
Cc1nn(CCN2CCOCC2)c(C)c1-c1cc(F)nc(O[C@@H]2CCN(c3cn[nH]c(=O)c3Cl)C2)c1 [P-0160, (R)-4-chloro-5-(3-((4-(3,5-dimethyl-1-(2-morpholinoethyl)-1H-pyrazol-4-yl)-6-fluoropyridin-2-yl)oxy)pyrrolidin-1-yl)pyridazin-3(2H)-one]	5.00 to 9.00	5.00 to 9.00
Cc1nn(CCN(C)C)c(C)c1-c1cc(F)nc(O[C@@H]2CCN(c3cn[nH]c(=O)c3Cl)C2)c1 [P-0161, (R)-4-chloro-5-(3-((4-(1-(2-(dimethylamino)ethyl)-3,5-dimethyl-1H-pyrazol-4-yl)-6-fluoropyridin-2-yl)oxy)pyrrolidin-1-yl)pyridazin-3(2H)-one]	5.00 to 9.00	5.00 to 9.00
Cc1noc(C)c1-c1cncc(O[C@@H]2CCN(c3cn[nH]c(=O)c3Cl)C2)c1 [P-0162, (R)-4-chloro-5-(3-((5-(3,5-dimethylisoxazol-4-yl)pyridin-3-yl)oxy)pyrrolidin-1-yl)pyridazin-3(2H)-one]	5.00 to 9.00	5.00 to 9.00
O=c1[nH]ncc(N2CC[C@@H](Oc3cncc(O[C@@H]4CCN(c5cn[nH]c(=O)c5Cl)C4)c3)C2)c1Cl [P-0163, 5,5′-((3R,3′R)-(pyridine-3,5-diylbis(oxy))bis(pyrrolidine-3,1-diyl))bis(4-chloropyridazin-3(2H)-one)]	5.00 to 9.00	5.00 to 9.00
CCCn1nc(C)c(-c2cc(F)nc(O[C@@H]3CCN(c4cn[nH]c(=O)c4)C3)c2)c1C [P-0164, (R)-5-(3-((4-(3,5-dimethyl-1-propyl-1H-pyrazol-4-yl)-6-fluoropyridin-2-yl)oxy)pyrrolidin-1-yl)pyridazin-3(2H)-one]	5.00 to 9.00	5.00 to 9.00
CCCn1nc(C)c(-c2cc(F)nc(O[C@@H]3CCN(c4cn[nH]c(=O)c4Cl)C3)c2)c1C [P-0165, (R)-4-chloro-5-(3-((4-(3,5-dimethyl-1-propyl-1H-pyrazol-4-yl)-6-fluoropyridin-2-yl)oxy)pyrrolidin-1-yl)pyridazin-3(2H)-one]	5.00 to 9.00	5.00 to 9.00
Cc1nn(CCC(F)(F)F)c(C)c1-c1cc(F)nc(O[C@@H]2CCN(c3cn[nH]c(=O)c3Cl)C2)c1 [P-0166, (R)-4-chloro-5-(3-((4-(3,5-dimethyl-1-(3,3,3-trifluoropropyl)-1H-pyrazol-4-yl)-6-fluoropyridin-2-yl)oxy)pyrrolidin-1-yl)pyridazin-3(2H)-one]	5.00 to 9.00	5.00 to 9.00
Cc1nn(CC(F)(F)F)c(C)c1-c1cc(F)nc(O[C@@H]2CCN(c3cn[nH]c(=O)c3Cl)C2)c1 [P-0167, (R)-4-chloro-5-(3-((4-(3,5-dimethyl-1-(2,2,2-trifluoroethyl)-1H-pyrazol-4-yl)-6-fluoropyridin-2-yl)oxy)pyrrolidin-1-yl)pyridazin-3(2H)-one]	5.00 to 9.00	5.00 to 9.00
Cc1nn(C)c(C)c1-c1cncc(O[C@@H]2CCN(c3cn[nH]c(=O)c3Cl)C2)c1 [P-0168, (R)-4-chloro-5-(3-((5-(1,3,5-trimethyl-1H-pyrazol-4-yl)pyridin-3-yl)oxy)pyrrolidin-1-yl)pyridazin-3(2H)-one]	5.00 to 9.00	5.00 to 9.00
Cc1nn(CC(F)F)c(C)c1-c1cc(F)nc(O[C@@H]2CCN(c3cn[nH]c(=O)c3Cl)C2)c1 [P-0169, (R)-4-chloro-5-(3-((4-(1-(2,2-difluoroethyl)-3,5-dimethyl-1H-pyrazol-4-yl)-6-fluoropyridin-2-yl)oxy)pyrrolidin-1-yl)pyridazin-3(2H)-one]	5.00 to 9.00	5.00 to 9.00
Cc1nn(C(F)F)c(C)c1-c1ccnc(O[C@@H]2CCN(c3cn[nH]c(=O)c3Cl)C2)c1 [P-0170, (R)-4-chloro-5-(3-((4-(1-(difluoromethyl)-3,5-dimethyl-1H-pyrazol-4-yl)pyridin-2-yl)oxy)pyrrolidin-1-yl)pyridazin-3(2H)-one]	5.00 to 9.00	5.00 to 9.00
Cc1nn(C)c(C)c1-c1cc(O[C@@H]2CCN(c3cn[nH]c(=O)c3Cl)C2)ncc1F [P-0171, (R)-4-chloro-5-(3-((5-fluoro-4-(1,3,5-trimethyl-1H-pyrazol-4-yl)pyridin-2-yl)oxy)pyrrolidin-1-yl)pyridazin-3(2H)-one]	5.00 to 9.00	5.00 to 9.00
Cc1nnn(C)c1-c1cc(F)nc(O[C@@H]2CCN(c3cn[nH]c(=O)c3Cl)C2)c1 [P-0172, (R)-4-chloro-5-(3-((4-(1,4-dimethyl-1H-1,2,3-triazol-5-yl)-6-fluoropyridin-2-yl)oxy)pyrrolidin-1-yl)pyridazin-3(2H)-one]	5.00 to 9.00	5.00 to 9.00
Cn1cncc1-c1cc(F)nc(O[C@@H]2CCN(c3cn[nH]c(=O)c3Cl)C2)c1 [P-0173, (R)-4-chloro-5-(3-((6-fluoro-4-(1-methyl-1H-imidazol-5-yl)pyridin-2-yl)oxy)pyrrolidin-1-yl)pyridazin-3(2H)-one]	5.00 to 9.00	5.00 to 9.00
Cc1nc(C)c(-c2cc(F)nc(O[C@@H]3CCN(c4cn[nH]c(=O)c4Cl)C3)c2)s1 [P-0174, (R)-4-chloro-5-(3-((4-(2,4-dimethylthiazol-5-yl)-6-fluoropyridin-2-yl)oxy)pyrrolidin-1-yl)pyridazin-3(2H)-one]	5.00 to 9.00	5.00 to 9.00
Cc1cnn(C)c1-c1cc(F)nc(O[C@@H]2CCN(c3cn[nH]c(=O)c3Cl)C2)c1 [P-0175, (R)-4-chloro-5-(3-((4-(1,4-dimethyl-1H-pyrazol-5-yl)-6-fluoropyridin-2-yl)oxy)pyrrolidin-1-yl)pyridazin-3(2H)-one]	5.00 to 9.00	5.00 to 9.00
Cc1noc(C)c1-c1ccnc(O[C@@H]2CCN(c3cnn(CCO)c(=O)c3Cl)C2)c1 [P-0176, (R)-4-chloro-5-(3-((4-(3,5-dimethylisoxazol-4-yl)pyridin-2-yl)oxy)pyrrolidin-1-yl)-2-(2-hydroxyethyl)pyridazin-3(2H)-one]	5.00 to 9.00	5.00 to 9.00
Cc1noc(C)c1-c1ccnc(O[C@H]2CN(c3cnn(CCO)c(=O)c3Cl)C[C@@H]2F)c1 [P-0177, 4-chloro-5-((3S,4S)-3-((4-(3,5-dimethylisoxazol-4-yl)pyridin-2-yl)oxy)-4-fluoropyrrolidin-1-yl)-2-(2-hydroxyethyl)pyridazin-3(2H)-one]	5.00 to 9.00	5.00 to 9.00
